For the assay, the system named is BDF1 mice, P388 leukemia ip, median survival T/C. As to the kind of experiment: NCI In Vivo Anticancer Drug Screen. Data for tumor model P388 Leukemia (intraperitoneal) in B6D2F1 (BDF1) mice. The note with it: endpoint: median survival time, higher = longer survival. The gist of the method:
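Vehicle-dosed animals serve as the reference; survival of compound-dosed, tumour-implanted mice is divided by it.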

Where [1] appears, read: dose: 50.0 mg/kg/injection, schedule: Q01DX009 (ip), vehicle: Klucel (hydroxypropylcellulose) (HPC).
[2] abbreviates: dose: 25.0 mg/kg/injection, schedule: Q01DX009 (ip), vehicle: saline.
Setting [3] is: dose: 50.0 mg/kg/injection, schedule: Q01DX009 (ip), vehicle: saline.
The mark [4] stands for this setting: dose: 100.0 mg/kg/injection, schedule: Q01DX009 (ip), vehicle: saline.

Where “and” joins values, the source holds several entries; their conditions need not be identical. Identical values can stand only once. Inconclusive results and toxic doses are left out.

As to `O=C1C=C(C2OC(CO)C(O)C2O)C(=O)N1` (stereo unspecified), the T/C (dose: 0.2 mg/kg/injection, schedule: Q01DX010 (ip), vehicle: saline) is 110 % of control; the T/C (dose: 0.37 mg/kg/injection, schedule: Q01DX001 (ip), vehicle: saline) was 95 % of control; the T/C (dose: 0.5 mg/kg/injection, schedule: Q01DX010 (ip), vehicle: saline) was 110 % of control; the T/C (dose: 0.75 mg/kg/injection, schedule: Q01DX001 (ip), vehicle: saline) was 91 % of control; the T/C (dose: 1.5 mg/kg/injection, schedule: Q01DX001 (ip), vehicle: saline) was 95 % of control; the T/C (dose: 2.0 mg/kg/injection, schedule: Q01DX010 (ip), vehicle: saline) is 150 % of control. Also, the T/C by setting is: (dose: 3.0 mg/kg/injection, schedule: Q01DX001 (ip), vehicle: saline) 110 % of control; (dose: 6.0 mg/kg/injection, schedule: Q01DX001 (ip), vehicle: saline) 100 % of control; (dose: 8.0 mg/kg/injection, schedule: Q01DX010 (ip), vehicle: saline) 150 % of control and 155 % of control and 157 % of control; (dose: 12.0 mg/kg/injection, schedule: Q01DX001 (ip), vehicle: saline) 100 % of control; (dose: 16.0 mg/kg/injection, schedule: Q01DX010 (ip), vehicle: saline) 121 % of control.
Regarding `FC(Cl)(Cl)c1nc2nc(Cl)c(Cl)nc2[nH]1`, the T/C was 104 % of control (dose: 3.12 mg/kg/injection, schedule: Q01DX009 (ip), vehicle: water); 107 % of control (dose: 6.25 mg/kg/injection, schedule: Q01DX009 (ip), vehicle: water); 116 % of control (dose: 6.25 mg/kg/injection, schedule: Q04DX003 (ip), vehicle: water); 100 % of control (dose: 12.5 mg/kg/injection, schedule: Q01DX009 (ip), vehicle: water); 116 % of control (dose: 12.5 mg/kg/injection, schedule: Q04DX003 (ip), vehicle: water); 108 % of control (dose: 25.0 mg/kg/injection, schedule: Q01DX009 (ip), vehicle: water). The T/C (dose: 25.0 mg/kg/injection, schedule: Q04DX003 (ip), vehicle: water) is 102 % of control; the T/C (dose: 50.0 mg/kg/injection, schedule: Q01DX009 (ip), vehicle: water) was 118 % of control; the T/C (dose: 50.0 mg/kg/injection, schedule: Q04DX003 (ip), vehicle: water) was 116 % of control; the T/C (dose: 100.0 mg/kg/injection, schedule: Q01DX009 (ip), vehicle: water) is 101 % of control; the T/C (dose: 100.0 mg/kg/injection, schedule: Q04DX003 (ip), vehicle: water) is 102 % of control.
Regarding `CN(C)/N=N/c1[nH]ncc1C(N)=O`, the T/C runs as follows: under setting [1], 95 % of control; (dose: 100.0 mg/kg/injection, schedule: Q01DX009 (ip), vehicle: Klucel (hydroxypropylcellulose) (HPC)) 104 % of control; (dose: 100.0 mg/kg/injection, schedule: Q04DX003 (ip), vehicle: alcohol) 118 % of control; (dose: 200.0 mg/kg/injection, schedule: Q04DX003 (ip), vehicle: alcohol) 113 % of control.
In the case of `CC(=O)OC1C(=O)C(O)C(C)OC1O[C@@H]1C[C@@]2(C)[C@@H]3CC=C4[C@@H](C[C@H](O)C(=O)C4(C)C)[C@]3(C)C(=O)C[C@]2(C)[C@H]1[C@@](C)(O)C(=O)/C=C/C(C)(C)O` (stereo partly specified), the T/C runs as follows: (dose: 0.13 mg/kg/injection, schedule: Q01DX009 (ip), vehicle: Klucel (hydroxypropylcellulose) (HPC)) 104 % of control; (dose: 0.16 mg/kg/injection, schedule: Q01DX010 (ip), vehicle: saline) 107 % of control and 110 % of control; (dose: 0.25 mg/kg/injection, schedule: Q01DX009 (ip), vehicle: Klucel (hydroxypropylcellulose) (HPC)) 109 % of control; (dose: 0.25 mg/kg/injection, schedule: Q01DX010 (ip), vehicle: carboxymethylcellulose (CMC)) 90 % of control; (dose: 0.33 mg/kg/injection, schedule: Q01DX010 (ip), vehicle: saline) 109 % of control and 110 % of control; (dose: 0.5 mg/kg/injection, schedule: Q01DX009 (ip), vehicle: Klucel (hydroxypropylcellulose) (HPC)) 118 % of control. In addition, the T/C by setting is: (dose: 0.5 mg/kg/injection, schedule: Q01DX010 (ip), vehicle: carboxymethylcellulose (CMC)) 87 % of control and 90 % of control; (dose: 0.67 mg/kg/injection, schedule: Q01DX010 (ip), vehicle: saline) 108 % of control and 110 % of control; (dose: 1.0 mg/kg/injection, schedule: Q01DX009 (ip), vehicle: Klucel (hydroxypropylcellulose) (HPC)) 113 % of control; (dose: 1.25 mg/kg/injection, schedule: Q01DX010 (ip), vehicle: saline) 109 % of control and 110 % of control; (dose: 1.4 mg/kg/injection, schedule: Q01DX009 (ip), vehicle: saline) 150 % of control; (dose: 2.0 mg/kg/injection, schedule: Q01DX009 (ip), vehicle: Klucel (hydroxypropylcellulose) (HPC)) 90 % of control. In addition, the T/C is, setting by setting: (dose: 2.5 mg/kg/injection, schedule: Q01DX010 (ip), vehicle: saline) 110 % of control and 111 % of control; (dose: 2.6 mg/kg/injection, schedule: Q01DX009 (ip), vehicle: saline) 120 % of control.
On to `COc1cc2ccc3c[n+]4ccccc4cc3c2cc1OC`, for which the T/C (dose: 25.0 mg/kg/injection, schedule: Q01DX009 (ip), vehicle: Klucel (hydroxypropylcellulose) (HPC)) was 102 % of control; the T/C under setting [2] is 112 % of control; the T/C under setting [1] was 116 % of control; the T/C under setting [3] is 117 % of control; the T/C under setting [4] was 114 % of control; the T/C (dose: 150.0 mg/kg/injection, schedule: Q01DX009 (ip), vehicle: Klucel (hydroxypropylcellulose) (HPC)) is 118 % of control.
Turning to `CCCCCC(CN(C)C)C(=O)/C=C/c1c(Cl)cccc1Cl` (stereo unspecified), the T/C runs as follows: (dose: 3.12 mg/kg/injection, schedule: Q04DX003 (ip), vehicle: Klucel (hydroxypropylcellulose) (HPC)) 104 % of control; (dose: 6.25 mg/kg/injection, schedule: Q01DX009 (ip), vehicle: Klucel (hydroxypropylcellulose) (HPC)) 110 % of control; (dose: 6.25 mg/kg/injection, schedule: Q04DX003 (ip), vehicle: Klucel (hydroxypropylcellulose) (HPC)) 109 % of control; (dose: 12.5 mg/kg/injection, schedule: Q04DX003 (ip), vehicle: Klucel (hydroxypropylcellulose) (HPC)) 104 % of control; (dose: 18.0 mg/kg/injection, schedule: Q04DX003 (ip), vehicle: Klucel (hydroxypropylcellulose) (HPC)) 105 % of control; (dose: 28.0 mg/kg/injection, schedule: Q04DX003 (ip), vehicle: Klucel (hydroxypropylcellulose) (HPC)) 115 % of control. Moreover, the T/C (dose: 40.0 mg/kg/injection, schedule: Q01DX001 (ip), vehicle: saline) was 109 % of control; the T/C (dose: 40.0 mg/kg/injection, schedule: Q04DX003 (ip), vehicle: Klucel (hydroxypropylcellulose) (HPC)) was 90 % of control; the T/C (dose: 65.0 mg/kg/injection, schedule: Q01DX001 (ip), vehicle: saline) was 104 % of control.
For the compound `COc1cc(/C=N\O)nc(-c2ccccn2)c1`, the T/C (dose: 12.5 mg/kg/injection, schedule: Q01DX009 (ip), vehicle: saline) is 120 % of control; the T/C under setting [2] was 96 % of control and 120 % of control; the T/C under setting [3] was 111 % of control and 123 % of control; the T/C under setting [4] was 114 % of control.
Turning to `C[N+](C)(C)C.N=C=O.N=C=O.N=C=O.N=C=O.[Co+2]`, the T/C was 88 % of control (dose: 2.5 mg/kg/injection, schedule: Q01DX009 (ip), vehicle: saline); 86 % of control (dose: 5.0 mg/kg/injection, schedule: Q01DX001 (ip), vehicle: other); 100 % of control (dose: 5.0 mg/kg/injection, schedule: Q01DX009 (ip), vehicle: saline with Tween-80); 95 % of control (dose: 5.0 mg/kg/injection, schedule: Q04DX003 (ip), vehicle: saline with Tween-80); 95 % of control (dose: 10.0 mg/kg/injection, schedule: Q01DX001 (ip), vehicle: other); 115 % of control and 116 % of control (dose: 10.0 mg/kg/injection, schedule: Q01DX009 (ip), vehicle: saline with Tween-80). The T/C is 109 % of control (dose: 10.0 mg/kg/injection, schedule: Q04DX003 (ip), vehicle: saline with Tween-80); 100 % of control (dose: 20.0 mg/kg/injection, schedule: Q01DX001 (ip), vehicle: other); 95 % of control and 115 % of control (dose: 20.0 mg/kg/injection, schedule: Q01DX009 (ip), vehicle: saline with Tween-80); 95 % of control (dose: 20.0 mg/kg/injection, schedule: Q01DX009 (ip), vehicle: saline); 95 % of control (dose: 20.0 mg/kg/injection, schedule: Q04DX003 (ip), vehicle: saline with Tween-80); 117 % of control (dose: 40.0 mg/kg/injection, schedule: Q01DX009 (ip), vehicle: saline).
